From paper PMC6560451, “Occurrence and Function of the Na^+-Translocating NADH:Quinone Oxidoreductase in Prevotella spp” (Microorganisms, 2019)

Target: T1, NqrB and NqrC subunits of P. bryantii B14 (Segatella baroniae, UniProt D8DWB9+D8DWC0)
T1 sequence (D8DWC0 1-385): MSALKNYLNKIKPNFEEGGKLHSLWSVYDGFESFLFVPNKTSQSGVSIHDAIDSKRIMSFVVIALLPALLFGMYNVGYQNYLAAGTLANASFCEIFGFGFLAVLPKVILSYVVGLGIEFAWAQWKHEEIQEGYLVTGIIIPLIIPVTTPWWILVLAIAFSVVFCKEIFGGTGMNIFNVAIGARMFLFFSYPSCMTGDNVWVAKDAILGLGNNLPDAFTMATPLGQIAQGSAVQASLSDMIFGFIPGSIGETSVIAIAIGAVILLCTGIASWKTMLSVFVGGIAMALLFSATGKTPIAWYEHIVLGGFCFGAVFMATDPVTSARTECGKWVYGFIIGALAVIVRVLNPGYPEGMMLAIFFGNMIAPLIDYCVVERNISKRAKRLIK
T1 sequence (D8DWB9 1-210): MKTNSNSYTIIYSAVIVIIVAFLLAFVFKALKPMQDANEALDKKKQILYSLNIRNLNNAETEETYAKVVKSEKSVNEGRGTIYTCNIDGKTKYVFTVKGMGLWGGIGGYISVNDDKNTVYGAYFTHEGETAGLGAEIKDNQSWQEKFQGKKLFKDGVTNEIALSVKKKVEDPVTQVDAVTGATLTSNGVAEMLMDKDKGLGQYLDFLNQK
Assay: in-gel fluorescence after SDS-PAGE (excitation […] nm)
Format: biochemical

Compound: Cc1cc2nc3c(=O)[nH]c(=O)nc-3n(C[C@H](O)[C@H](O)[C@H](O)COP(=O)(O)O)c2cc1C [flavin mononucleotide]
- in-gel fluorescence after SDS-PAGE (excitation 460 nm): verified by in-gel fluorescence detection of covalently bound FMN chromophores
